36 compounds from patent US8207216B2, “Benzofuran-3-yl(indol-3-yl) maleimides as potent GSK3 inhibitors” (The Board of Trustees of the University of Illinois, priority 2006, dated 2012) can be followed below.

One may read the Ki as the dissociation constant of the complex between target and ligand, obtained from inhibition or displacement. In general, IC50 refers to the concentration that gives 50% inhibition.

The target in assay [1] is T1, recombinant human His6-GSK-3β (Homo sapiens, UniProt P49841).
T1 construct: His6; purchased EMD Biosciences
Nature of the assay: GSK-3β kinase assay, [γ32P] transfer to primed glycogen synthase peptide.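 As to all read-outs here: phosphate incorporation quantified by liquid scintillation counting of the filters.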 Type of assay: biochemical. The note with it: for IC50: 10 μM ATP, 10 μM pGSM peptide, 30 minutes at 30° C., read-out: IC50 (nM), GSK-3β inhibition.

In another assay the test system is MIAPaCa-2. The assay is described as follows: Antiproliferation MTS assay, pancreatic cancer cells. Type of assay: cell-based. The following applies: Homo sapiens, MIA PaCa-2; 72 hrs, MTS.
In the next assay the target is CDK-2/cyclinE (Homo sapiens, UniProt P24941). The assay is described as follows: CDK-2/CyclinE inhibition (Reaction Biology). The assay is classed as biochemical. The note with it: for IC50: tested at Reaction Biology, Inc.; for IC50 Ratio CDK-2/cyclinE GSK-3β: selectivity ratio.

T1 sequence (P49841 whole entry): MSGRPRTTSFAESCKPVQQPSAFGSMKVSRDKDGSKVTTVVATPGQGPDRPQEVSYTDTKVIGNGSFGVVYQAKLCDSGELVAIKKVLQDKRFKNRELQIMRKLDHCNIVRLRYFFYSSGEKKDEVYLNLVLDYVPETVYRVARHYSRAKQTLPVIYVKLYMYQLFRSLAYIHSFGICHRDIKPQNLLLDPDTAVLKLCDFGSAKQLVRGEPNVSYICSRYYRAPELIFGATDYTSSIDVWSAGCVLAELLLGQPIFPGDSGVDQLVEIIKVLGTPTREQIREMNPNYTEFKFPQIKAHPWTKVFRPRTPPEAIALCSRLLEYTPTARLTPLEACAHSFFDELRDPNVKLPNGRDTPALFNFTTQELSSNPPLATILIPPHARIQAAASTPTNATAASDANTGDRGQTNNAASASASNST

As for “3-(6-Chloro-5-methoxy-1-methyl-1H-indol-3-yl)-4-(6-methoxy-benzofuran-3-yl)-pyrrole-2,5-dione [Compound 14]”, in assay [1], the Ki stood at 580 nM and the IC50 came out at 870 ± 160 nM. For `O=C1NC(=O)C(c2coc3ccc(F)cc23)=C1c1c[nH]c2ccccc12` [Compound 2, 3-(5-Fluoro-benzofuran-3-yl)-4-(1H-indol-3-yl)-pyrrole-2,5-dione], the IC50 in assay [1] amounted to 670 ± 40 nM. Still for that read-out and setting: with `Cn1cc(C2=C(c3coc4ccc(Br)cc34)C(=O)NC2=O)c2ccccc21` [Compound 3, 3-(5-Bromo-benzofuran-3-yl)-4-(1-methyl-1H-indol-3-yl)-pyrrole-2,5-dione] the figure was 550 ± 20 nM. As to `COc1cccc2c(C3=C(c4cn(C)c5ccccc45)C(=O)NC3=O)coc12` [Compound 4, 3-(7-Methoxy-benzofuran-3-yl)-4-(1-methyl-1H-indol-3-yl)-pyrrole-2,5-dione], in assay [1], the IC50 worked out at 180 ± 15 nM. As to `O=C1NC(=O)C(c2coc3ccccc23)=C1c1c[nH]c2ccc(F)cc12` [Compound 5, 3-Benzofuran-3-yl-4-(5-fluoro-1H-indol-3-yl)-pyrrole-2,5-dione], the half-maximal inhibitory concentration (IC50) in assay [1] is 360 ± 40 nM; in the assay on MIAPaCa-2, 21000 nM. As to `Cn1cc(C2=C(c3coc4ccccc34)C(=O)NC2=O)c2cc(F)ccc21` [Compound 6, 3-Benzofuran-3-yl-4-(5-fluoro-1-methyl-1H-indol-3-yl)-pyrrole-2,5-dione], the IC50 in assay [1] came out at 26 ± 6 nM. `Cn1cc(C2=C(c3coc4cc(CO)ccc34)C(=O)NC2=O)c2cc(F)ccc21` [Compound 7, 3-(5-Fluoro-1-methyl-1H-indol-3-yl)-4-(6-hydroxymethyl-benzofuran-3-yl)-pyrrole-2,5-dione]: the IC50 in assay [1] was 0.35 ± 0.06 nM; at CDK-2/cyclinE, 237 nM. In the case of `Cn1cc(C2=C(c3coc4cc(O)ccc34)C(=O)NC2=O)c2cc(F)ccc21` [Compound 9, 3-(5-Fluoro-1-methyl-1H-indol-3-yl)-4-(6-hydroxy-benzofuran-3-yl)-pyrrole-2,5-dione], in assay [1], the IC50 amounted to 3.5 ± 1.3 nM. The same measure, in the same setting: for `COc1cccc2c(C3=C(c4cn(C)c5cc(Br)c(F)cc45)C(=O)NC3=O)coc12` [Compound 11, 3-(6-Bromo-5-fluoro-1-methyl-1H-indol-3-yl)-4-(7-methoxy-benzofuran-3-yl)-pyrrole-2,5-dione] the value was 59.7 ± 6.57 nM. The same measure, in the same setting: for `COc1cccc2c(C3=C(c4cn(C)c5cc(-c6ccc(Cl)cc6)c(F)cc45)C(=O)NC3=O)coc12` [Compound 18, 3-[6-(4-Chlorophenyl)-5-fluoro-1-methyl-1H-indol-3-yl]-4-(7-methoxy-benzofuran-3-yl)-pyrrole-2,5-dione] the value was 7160 ± 1200 nM; for `C=CCOc1ccc2c(C3=C(c4cn(C)c5ccc(Br)cc45)C(=O)NC3=O)coc2c1` [Compound 24, 3-(6-Allyloxy-benzofuran-3-yl)-4-(5-bromo-1-methyl-1H-indol-3-yl)-pyrrole-2,5-dione], 48.3 ± 7 nM; for `COc1ccc(COc2ccc3c(C4=C(c5cn(C)c6ccc(Br)cc56)C(=O)NC4=O)coc3c2)cc1` [Compound 25, 3-(5-Bromo-1-methyl-1H-indol-3-yl)-4-[6-(4-methoxy-benzyloxy)-benzofuran-3-yl]-pyrrole-2,5-dione], 335 ± 37 nM.

As for `COc1cccc2c(C3=C(c4cn(C)c5c(Br)cc(Br)cc45)C(=O)NC3=O)coc12` [Compound 26, 3-(5,7-Dibromo-1-methyl-1H-indol-3-yl)-4-(7-methoxy-benzofuran-3-yl)-pyrrole-2,5-dione], the IC50 in assay [1] is 88.7 ± 5.6 nM. With `Cn1cc(C2=C(c3coc4ccc(F)cc34)C(=O)NC2=O)c2cc(Cl)ccc21` [Compound 27, 3-(5-Chloro-1-methyl-1H-indol-3-yl)-4-(5-fluoro-benzofuran-3-yl)-pyrrole-2,5-dione], the IC50 in assay [1] was found to be 34.5 ± 3.8 nM; against CDK-2/cyclinE, 1840 nM. Further, the “IC50 Ratio CDK-2/cyclinE GSK-3β” value on CDK-2/cyclinE is listed as 2.6. For `Cn1cc(C2=C(c3coc4ccc(F)cc34)C(=O)NC2=O)c2cc(I)ccc21` [Compound 29, 3-(5-Fluoro-benzofuran-3-yl)-4-(5-iodo-1-methyl-1H-indol-3-yl)-pyrrole-2,5-dione], in assay [1], the IC50 turned out to be 180 ± 11 nM.

Turning to `Cn1cc(C2=C(c3coc4ccccc34)C(=O)NC2=O)c2cc(O)ccc21` [Compound 30, 3-Benzofuran-3-yl-4-(5-hydroxy-1-methyl-1H-indol-3-yl)-pyrrole-2,5-dione], the IC50 in assay [1] stood at 690 ± 100 nM. Still for that read-out and setting: for `Cn1cc(C2=C(c3coc4ccccc34)C(=O)NC2=O)c2cc(OCc3ccccc3)ccc21` [Compound 31, 3-Benzofuran-3-yl-4-(5-benzyloxy-1-methyl-1H-indol-3-yl)-pyrrole-2,5-dione] the value was 500 ± 60 nM. Still for that read-out and setting: with `O=C1NC(=O)C(c2cn(CCCO)c3ccc(OCc4ccccc4)cc23)=C1c1coc2ccccc12` [Compound 32, 3-Benzofuran-3-yl-4-[5-benzyloxy-1-(3-hydroxy-propyl)-1H-indol-3-yl]-pyrrole-2,5-dione] the figure was 220 ± 30 nM; with `Cn1cc(C2=C(c3coc4cc(CO)ccc34)C(=O)NC2=O)c2cc(C#N)ccc21` [Compound 34, 3-[4-(6-Hydroxymethyl-benzofuran-3-yl)-2,5-dioxo-2,5-dihydro-1H-pyrrol-3-yl]-1-methyl-1H-indole-5-carbonitrile], 13.2 ± 3.2 nM.

With `Cn1cc(C2=C(c3coc4ccccc34)C(=O)NC2=O)c2cc(C3CC3)ccc21` [Compound 37, 3-Benzofuran-3-yl-4-(5-cyclopropyl-1-methyl-1H-indol-3-yl)-pyrrole-2,5-dione], the IC50 is 235 ± 15 nM in assay [1] and 32000 nM against CDK-2/cyclinE. Regarding `Cn1cc(C2=C(c3coc4ccccc34)C(=O)NC2=O)c2cc(N3CCOCC3)ccc21` [Compound 39, 3-Benzofuran-3-yl-4-(1-methyl-5-morpholin-4-yl-1H-indol-3-yl)-pyrrole-2,5-dione], the IC50 in assay [1] turned out to be 1300 ± 146 nM. On to `COc1ccc2c(c1)c(C1=C(c3coc4ccccc34)C(=O)NC1=O)cn2C` [Compound 41, 3-Benzofuran-3-yl-4-(5-methoxy-1-methyl-1H-indol-3-yl)-pyrrole-2,5-dione], for which the IC50 in assay [1] was 125 ± 35 nM. Turning to `COc1cc2c(C3=C(c4coc5ccccc45)C(=O)NC3=O)cn(C)c2cc1I` [Compound 43, 3-Benzofuran-3-yl-4-(6-iodo-5-methoxy-1-methyl-1H-indol-3-yl)-pyrrole-2,5-dione], the IC50 in assay [1] is 223 ± 22 nM. In the case of `O=C1NC(=O)C(c2coc3ccccc23)=C1c1c[nH]c2ccc(OCc3ccccc3)cc12` [Compound 44, 3-Benzofuran-3-yl-4-(5-benzyloxy-1H-indol-3-yl)-pyrrole-2,5-dione], the concentration for half-maximal inhibition (IC50) in assay [1] worked out at 1650 ± 200 nM; with MIAPaCa-2, 21000 nM. Turning to `Cn1cc(C2=C(c3coc4ccccc34)C(=O)NC2=O)c2ccc(OCc3ccccc3)cc21` [Compound 47, 3-Benzofuran-3-yl-4-(6-benzyloxy-1-methyl-1H-indol-3-yl)-pyrrole-2,5-dione], the concentration for half-maximal inhibition (IC50) in assay [1] was 900 ± 80 nM. Take `Cn1cc(C2=C(c3coc4ccc(F)cc34)C(=O)NC2=O)c2ccc(OCc3ccccc3)cc21` [Compound 48, 3-(6-Benzyloxy-1-methyl-1H-indol-3-yl)-4-(5-fluoro-benzofuran-3-yl)-pyrrole-2,5-dione]: the IC50 worked out at 160 ± 35 nM in assay [1] and 80000 nM in the assay on MIAPaCa-2.

As to `Cn1cc(C2=C(c3coc4ccccc34)C(=O)NC2=O)c2cccc(CO)c21` [Compound 50, 3-Benzofuran-3-yl-4-(7-hydroxymethyl-1-methyl-1H-indol-3-yl)-pyrrole-2,5-dione], in assay [1], the IC50 worked out at 5.4 ± 0.7 nM. The same measure, in the same setting: with `Cn1cc(C2=C(c3coc4cc(CO)ccc34)C(=O)NC2=O)c2cccc(CO)c21` [Compound 51, 3-(6-Hydroxymethyl-benzofuran-3-yl)-4-(7-hydroxymethyl-1-methyl-1H-indol-3-yl)-pyrrole-2,5-dione] the figure was 5.1 ± 1.2 nM; with `Cn1cc(C2=C(c3coc4ccccc34)C(=O)NC2=O)c2cccc(O)c21` [Compound 53, 3-Benzofuran-3-yl-4-(7-hydroxy-1-methyl-1H-indol-3-yl)-pyrrole-2,5-dione], 55 ± 8 nM; with `Cn1cc(C2=C(c3coc4ccccc34)C(=O)NC2=O)c2cccc(OCc3ccccc3)c21` [Compound 54, 3-Benzofuran-3-yl-4-(7-benzyloxy-1-methyl-1H-indol-3-yl)-pyrrole-2,5-dione], 220 ± 45 nM. Same read-out and setting: with `CN1C(=O)C(c2coc3cc(CO)ccc23)=C(c2cn(C)c3ccc(F)cc23)C1=O` [Compound 56, 3-(5-Fluoro-1-methyl-1H-indol-3-yl)-4-(6-hydroxymethyl-benzofuran-3-yl)-1-methyl-pyrrole-2,5-dione] the figure was 0.35 ± 0.06 nM. As for `Cn1cc(C2=C(c3coc4ccccc34)C(=O)NC2=O)c2cccc(CO)c21` [Compound 82], on CDK-2/cyclinE, the “IC50 Ratio CDK-2/cyclinE GSK-3β” value is given as 27 and inhibition was half-maximal at 149 nM (IC50). The matching figures for `Cn1cc(C2=C(c3coc4cc(CO)ccc34)C(=O)NC2=O)c2cccc(CO)c21` [Compound 83]: 5 and 27 nM. On to `Cn1cc(C2=C(c3coc4ccccc34)C(=O)NC2=O)c2cccc(CCC(=O)O)c21` [Compound 86], for which the concentration for half-maximal inhibition (IC50) in assay [1] came to 1.2 ± 0.2 nM. Same read-out and setting: with `COCc1cccc2c(C3=C(c4coc5cc(CO)ccc45)C(=O)NC3=O)cn(C)c12` [Compound 92] the figure was 0.73 ± 0.1 nM.

On to `CCOC(=O)CCc1cccc2c(C3=C(c4coc5ccccc45)C(=O)NC3=O)cn(C)c12` [Compound 93], for which, in assay [1], the half-maximal inhibitory concentration (IC50) is 10.2 ± 3.6 nM.
